{
  "source": "PubChem BioAssay (NCI)",
  "experiment_in_all_cases": "NCI anticancer screen, dose series, 48 h",
  "key": {"[1]": {"test_system": "A498 renal"}, "[2]": {"test_system": "BT-549 breast"}, "[3]": {"test_system": "COLO 205 colon"}, "[4]": {"test_system": "HCT-15 colon"}, "[5]": {"test_system": "HOP-92 NSCLC"}, "[6]": {"test_system": "HT29 colon"}, "[7]": {"test_system": "KM12 colon"}, "[8]": {"test_system": "LOX IMVI melanoma"}, "[9]": {"test_system": "NCI-H226 lung"}, "[10]": {"test_system": "OVCAR-4 ovarian"}, "[11]": {"test_system": "PC-3 prostate"}, "[12]": {"test_system": "SNB-75 CNS"}},
  "note": "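Step 1: Grow cells in 96-well plates. Step 2: Expose to compound for 48 hours at 5 concentrations. Step 3: Interpolate endpoints linearly; if unreached, use highest concentration. The concentration for full growth arrest is given as TGI.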",
  "data": [
    {"smiles": "O=C(O)CO[C@@]12C#C/C=C\\C#C[C@@H]3N(C(=O)Oc4ccccc4)c4ccccc4[C@]14O[C@@]34CCC2", "values": [
      {"measurement": "TGI", "setting": "[1]", "result": "> 100", "unit": "µM"},
      {"measurement": "TGI", "setting": "[2]", "result": 69.9, "unit": "µM"},
      {"measurement": "TGI", "setting": "[3]", "result": 46.8, "unit": "µM"},
      {"measurement": "TGI", "setting": "[4]", "result": 31.2, "unit": "µM"},
      {"measurement": "TGI", "setting": "[5]", "result": "> 100", "unit": "µM"},
      {"measurement": "TGI", "setting": "[6]", "result": "> 100", "unit": "µM"},
      {"measurement": "TGI", "setting": "[7]", "result": 60.3, "unit": "µM"},
      {"measurement": "TGI", "setting": "[8]", "result": "> 100", "unit": "µM"},
      {"measurement": "TGI", "setting": "[9]", "result": "> 100", "unit": "µM"},
      {"measurement": "TGI", "setting": "[10]", "result": "> 100", "unit": "µM"},
      {"measurement": "TGI", "setting": "[11]", "result": "> 100", "unit": "µM"}
    ]},
    {"smiles": "CSc1c(C(=O)Nc2ccccc2)c(N)n(N)c(=O)c1C#N", "values": [
      {"measurement": "TGI", "setting": "[1]", "result": "> 100", "unit": "µM"},
      {"measurement": "TGI", "setting": "[2]", "result": "> 100", "unit": "µM"},
      {"measurement": "TGI", "setting": "[3]", "result": "> 100", "unit": "µM"},
      {"measurement": "TGI", "setting": "[4]", "result": "> 100", "unit": "µM"},
      {"measurement": "TGI", "setting": "[6]", "result": "> 100", "unit": "µM"},
      {"measurement": "TGI", "setting": "[7]", "result": "> 100", "unit": "µM"},
      {"measurement": "TGI", "setting": "[8]", "result": "> 100", "unit": "µM"},
      {"measurement": "TGI", "setting": "[9]", "result": "> 100", "unit": "µM"},
      {"measurement": "TGI", "setting": "[10]", "result": "> 100", "unit": "µM"},
      {"measurement": "TGI", "setting": "[11]", "result": "> 100", "unit": "µM"},
      {"measurement": "TGI", "setting": "[12]", "result": "> 100", "unit": "µM"}
    ]},
    {"smiles": "COC(=O)[C@@H]1C[C@H]2OC(=O)CC[C@]2(C)O[C@H]1[C@H]1O[C@@](C)(O)CCC[C@H]1C", "values": [
      {"measurement": "TGI", "setting": "[2]", "result": "> 50", "unit": "µM"},
      {"measurement": "TGI", "setting": "[3]", "result": "> 50", "unit": "µM"},
      {"measurement": "TGI", "setting": "[4]", "result": "> 50", "unit": "µM"},
      {"measurement": "TGI", "setting": "[6]", "result": "> 50", "unit": "µM"},
      {"measurement": "TGI", "setting": "[7]", "result": "> 50", "unit": "µM"},
      {"measurement": "TGI", "setting": "[8]", "result": "> 50", "unit": "µM"},
      {"measurement": "TGI", "setting": "[9]", "result": "> 50", "unit": "µM"},
      {"measurement": "TGI", "setting": "[10]", "result": "> 50", "unit": "µM"},
      {"measurement": "TGI", "setting": "[11]", "result": "> 50", "unit": "µM"}
    ]},
    {"smiles": "CC(C)(C)C1=C(Br)C(C(C)(C)C)OP1(=O)O", "note": "(stereo unspecified)", "values": [
      {"measurement": "TGI", "setting": "[1]", "result": "> 100", "unit": "µM"},
      {"measurement": "TGI", "setting": "[3]", "result": "> 100", "unit": "µM"},
      {"measurement": "TGI", "setting": "[4]", "result": "> 100", "unit": "µM"},
      {"measurement": "TGI", "setting": "[5]", "result": "> 100", "unit": "µM"},
      {"measurement": "TGI", "setting": "[6]", "result": "> 100", "unit": "µM"},
      {"measurement": "TGI", "setting": "[7]", "result": "> 100", "unit": "µM"},
      {"measurement": "TGI", "setting": "[8]", "result": "> 100", "unit": "µM"},
      {"measurement": "TGI", "setting": "[9]", "result": "> 100", "unit": "µM"},
      {"measurement": "TGI", "setting": "[10]", "result": "> 100", "unit": "µM"},
      {"measurement": "TGI", "setting": "[11]", "result": "> 100", "unit": "µM"},
      {"measurement": "TGI", "setting": "[12]", "result": "> 100", "unit": "µM"}
    ]},
    {"smiles": "Nc1ccccc1CCN1CCN(CCCc2ccccc2)CC1", "values": [
      {"measurement": "TGI", "setting": "[1]", "result": "> 100", "unit": "µM"},
      {"measurement": "TGI", "setting": "[2]", "result": "> 100", "unit": "µM"},
      {"measurement": "TGI", "setting": "[3]", "result": 55, "unit": "µM"},
      {"measurement": "TGI", "setting": "[4]", "result": "> 100", "unit": "µM"},
      {"measurement": "TGI", "setting": "[6]", "result": "> 100", "unit": "µM"},
      {"measurement": "TGI", "setting": "[7]", "result": "> 100", "unit": "µM"},
      {"measurement": "TGI", "setting": "[8]", "result": "> 100", "unit": "µM"},
      {"measurement": "TGI", "setting": "[9]", "result": "> 100", "unit": "µM"},
      {"measurement": "TGI", "setting": "[10]", "result": "> 100", "unit": "µM"},
      {"measurement": "TGI", "setting": "[11]", "result": "> 100", "unit": "µM"}
    ]},
    {"smiles": "COc1ccc(CC2COc3cc(OC)cc(OC)c3C2=O)cc1", "note": "(stereo unspecified)", "values": [
      {"measurement": "TGI", "setting": "[1]", "result": "> 100", "unit": "µM"},
      {"measurement": "TGI", "setting": "[2]", "result": "> 100", "unit": "µM"},
      {"measurement": "TGI", "setting": "[3]", "result": 31.1, "unit": "µM"},
      {"measurement": "TGI", "setting": "[4]", "result": "> 100", "unit": "µM"},
      {"measurement": "TGI", "setting": "[5]", "result": "> 100", "unit": "µM"},
      {"measurement": "TGI", "setting": "[6]", "result": 40.4, "unit": "µM"},
      {"measurement": "TGI", "setting": "[7]", "result": "> 100", "unit": "µM"},
      {"measurement": "TGI", "setting": "[8]", "result": "> 100", "unit": "µM"},
      {"measurement": "TGI", "setting": "[10]", "result": 51.5, "unit": "µM"},
      {"measurement": "TGI", "setting": "[11]", "result": "> 100", "unit": "µM"}
    ]},
    {"smiles": "O=C(NC1=C(Cl)C(=O)c2ccccc2C1=O)c1ccccc1", "values": [
      {"measurement": "TGI", "setting": "[2]", "result": 44.4, "unit": "µM"},
      {"measurement": "TGI", "setting": "[3]", "result": 30, "unit": "µM"},
      {"measurement": "TGI", "setting": "[4]", "result": 62.6, "unit": "µM"},
      {"measurement": "TGI", "setting": "[5]", "result": 39.9, "unit": "µM"},
      {"measurement": "TGI", "setting": "[6]", "result": 66.1, "unit": "µM"},
      {"measurement": "TGI", "setting": "[7]", "result": "> 100", "unit": "µM"},
      {"measurement": "TGI", "setting": "[9]", "result": 69, "unit": "µM"},
      {"measurement": "TGI", "setting": "[10]", "result": "> 100", "unit": "µM"},
      {"measurement": "TGI", "setting": "[11]", "result": "> 100", "unit": "µM"},
      {"measurement": "TGI", "setting": "[12]", "result": "> 100", "unit": "µM"}
    ]},
    {"smiles": "N#Cc1ccc(-c2nc3c(N)ncnc3o2)cc1", "values": [
      {"measurement": "TGI", "setting": "[1]", "result": "> 100", "unit": "µM"},
      {"measurement": "TGI", "setting": "[2]", "result": "> 100", "unit": "µM"},
      {"measurement": "TGI", "setting": "[3]", "result": "> 100", "unit": "µM"},
      {"measurement": "TGI", "setting": "[4]", "result": "> 100", "unit": "µM"},
      {"measurement": "TGI", "setting": "[6]", "result": "> 100", "unit": "µM"},
      {"measurement": "TGI", "setting": "[7]", "result": "> 100", "unit": "µM"},
      {"measurement": "TGI", "setting": "[8]", "result": "> 100", "unit": "µM"},
      {"measurement": "TGI", "setting": "[9]", "result": "> 100", "unit": "µM"},
      {"measurement": "TGI", "setting": "[11]", "result": "> 100", "unit": "µM"}
    ]},
    {"smiles": "CNc1ncccc1Nc1cc(=O)n2c3cccnc3n(C)c2c1", "values": [
      {"measurement": "TGI", "setting": "[1]", "result": "> 100", "unit": "µM"},
      {"measurement": "TGI", "setting": "[2]", "result": "> 100", "unit": "µM"},
      {"measurement": "TGI", "setting": "[3]", "result": "> 100", "unit": "µM"},
      {"measurement": "TGI", "setting": "[4]", "result": "> 100", "unit": "µM"},
      {"measurement": "TGI", "setting": "[6]", "result": "> 100", "unit": "µM"},
      {"measurement": "TGI", "setting": "[7]", "result": "> 100", "unit": "µM"},
      {"measurement": "TGI", "setting": "[8]", "result": "> 100", "unit": "µM"},
      {"measurement": "TGI", "setting": "[9]", "result": "> 100", "unit": "µM"},
      {"measurement": "TGI", "setting": "[10]", "result": "> 100", "unit": "µM"},
      {"measurement": "TGI", "setting": "[11]", "result": "> 100", "unit": "µM"},
      {"measurement": "TGI", "setting": "[12]", "result": 78.1, "unit": "µM"}
    ]},
    {"smiles": "CC12C=CC(C)(C3C(=O)C4C(C(=O)C31)C1(C)C=CC4(C)S1=O)S2=O", "note": "(stereo unspecified)", "values": [
      {"measurement": "TGI", "setting": "[2]", "result": "> 100", "unit": "µM"},
      {"measurement": "TGI", "setting": "[3]", "result": "> 100", "unit": "µM"},
      {"measurement": "TGI", "setting": "[4]", "result": "> 100", "unit": "µM"},
      {"measurement": "TGI", "setting": "[6]", "result": "> 100", "unit": "µM"},
      {"measurement": "TGI", "setting": "[7]", "result": "> 100", "unit": "µM"},
      {"measurement": "TGI", "setting": "[8]", "result": "> 100", "unit": "µM"},
      {"measurement": "TGI", "setting": "[9]", "result": "> 100", "unit": "µM"},
      {"measurement": "TGI", "setting": "[11]", "result": "> 100", "unit": "µM"},
      {"measurement": "TGI", "setting": "[12]", "result": "> 100", "unit": "µM"}
    ]}
  ]
}
